Where two headings read alike, the source gives them in different places.
How the values were obtained:
[1] = tested on: Plasmodium falciparum D6 strain (chloroquine sensitive); test: Antiplasmodial fluorescence-based SyBr Green assay, D6 strain; type: cell-based
Method: (§1) Parasite culture and drug susceptibility assays: Four different laboratory strains of P. falciparum were cultured in human erythrocytes by standard methods under a low oxygen atmosphere (5% O2, 5% CO2, 90% N2) in an environmental chamber (Trager, W., and J. Jensen. 1976. Human malaria parasites in continuous culture. Science 193:673-675). The culture medium was RPMI 1640, supplemented with 25 mM Hepes buffer, 25 mg/liter gentamicin sulfate, 45 mg/liter hypoxanthine, 10 mM glucose, 2 mM glutamine, and 0.5% Albumax II. The parasites were maintained in fresh human erythrocytes suspended at a 2% hematocrit in complete medium at 37° C. Stock cultures were sub-passaged every 3 to 4 days by transfer of infected red cells to a flask containing complete medium and uninfected erythrocytes.
(§2) In vitro antimalarial activity of the test compounds was assessed by a fluorescence-based method described previously by Smilkstein M., N. Sriwilaijaroen, J. X. Kelly, P. Wilairat, and M. Riscoe. 2004. Simple and inexpensive fluorescence-based technique for high-throughput antimalarial drug screening. Antimicrob Agents Chemother 48:1803-6. The experiments were set up in triplicate in 96 well plates with two-fold dilutions of each compound across the plate in a total volume of 100 μl and at a final red blood cell concentration of 2% (v/v). Stock solutions of each compound were prepared by dissolving in DMSO at 10 mM. […] In every case, an additional determination was performed to ensure bracketing of the IC50 value by at least an order of magnitude. Automated pipeting and dilution was carried out by a programmable Precision 2000 robotic station (Bio-Tek, Winooski, Vt.). An initial parasitemia of 0.2% was attained by addition of normal uninfected red cells to a stock culture of asynchronous parasite infected red cells (PRBC). The plates were incubated for 72 hrs at 37° C. in an atmosphere of 5% CO2, 5% O2, and 90% N2. After this period the SyBr Green I dye-detergent mixture (100 μl) was added and the plates were incubated at room temperature for an hour in the dark and then placed in a 96-well fluorescence plate reader (Gemini-EM, […]) for analysis with excitation and emission wavelength bands centered at 497 and 520 nm, respectively.

[2] = tested on: Plasmodium falciparum Dd2 strain (multidrug-resistant); test: Antiplasmodial fluorescence-based SyBr Green assay, Dd2 strain; type: cell-based; conditions: read-out: Antiplasmodial IC50, Dd2 strain
Method: as §1, §2

[3] = tested on: Plasmodium falciparum Tm90.C2B strain (multidrug-resistant); test: Antiplasmodial fluorescence-based SyBr Green assay, Tm90.C2B strain; type: cell-based; conditions: read-out: Antiplasmodial IC50, Tm90.C2B strain
Method: as §1, §2

[4] = tested on: Plasmodium falciparum 7G8 strain (multidrug-resistant); test: Antiplasmodial fluorescence-based SyBr Green assay, 7G8 strain; type: cell-based; conditions: read-out: Antiplasmodial IC50, 7G8 strain
Method: as §1, §2

Plasmodium yoelii = test: Modified Thompson test, suppression of patent infection in mice; type: in vivo; conditions: P. yoelii in CF1 mice; gavage daily for 3 days; smears on 4th day; pharmachins free base in miglyol 812, chloroquine in water
Method: Efficacy of compounds in vivo. […] This test monitors suppression of patent infection in female CF1 Swiss albino mice (≈20 gm). A test begins with the inoculation of Plasmodium yoelii parasitized erythrocytes (100,000 to 500,000; obtained from a donor animal) on the first day of the experiment (D0). After 24 hours, the standard agents or pharmachin compounds were administered by gavage at daily intervals for three successive days. Initially the test compounds were examined at 128 mg/kg/day, 64 mg/kg/day, 16 mg/kg/day and 4 mg/kg/day and including a vehicle-only control. […] The parasite burden in each blood sample was determined by direct microscopic analysis of methanol-fixed, Giemsa-stained blood smears. […] The ED50 value is the dosage of drug required to achieve a 50% reduction in parasitemia relative to the vehicle-only control; non-linear regression analysis was employed to generate ED50s from the accumulated data.
Mice were split into groups of 3 each and animals were dosed by gavage at the following dosages: 128 mg/kg; 64 mg/kg; 16 mg/kg; and 3 mg/kg. The drugs were administered daily for 3 days and blood smears were taken on the 4th day. […] ED50 values were calculated by graphical analysis of the dose-response effect.

P. berghei (ANKA/GFP) = test: Modified 4 day test in infected mice; type: in vivo
Method: Follow-up studies with Pharmachin 128 were preformed in mice infected with P. berghei (ANKA/GFP) using a modified 4 day test. Animals (CF1) were inoculated (iv) with 1 million infected red blood cells, obtained from donor animals, and then randomly sorted into groups of 5 mice each.
In this set of experiments Pharmachin 128 was administered daily by gavage as the citrate salt dissolved in water (100 μl) for each of 4 days. Dosing was set at 64, 16, 4, 2, and 1 mg/kg/day, respectively, and including a no drug control. Blood films were prepared on the 5th day (i.e., the day after the final drug dose), fixed in methanol, stained with Giemsa, and viewed microscopically to assess parasitemia.

[5] = tested on: P. falciparum strains (D6, Dd2, Tm90.C2B, 7G8); test: Antiplasmodial SyBr Green assay, summary across strains; type: cell-based, Plasmodium falciparum; conditions: for IC50: Plasmodium falciparum
Method: as §1
as §2, with “An initial parasitemia of 0.2% was attained by addition of normal uninfected red cells to a stock culture of asynchronous parasite infected red cells (PRBC). The plates were incubated for 72 hrs at 37° C. in an atmosphere of 5% CO2, 5% O2, and 90% N2.” left out

[6] = Plasmodium falciparum, D6, 72 h; read-out: Antiplasmodial IC50, D6 strain
[7] = Plasmodium falciparum, multidrug-resistant Dd2 strain, 72 hrs, mean of at least two experiments in triplicate
[8] = multidrug-resistant Tm90.C2B strain, 72 hrs, mean of at least two experiments in triplicate
[9] = Plasmodium falciparum, multidrug-resistant 7G8 strain, 72 hrs, mean of at least two experiments in triplicate
[10] = 64 mg/kg/day, gavage, 4 days, citrate salt
[11] = P. berghei in CF1 mice, citrate salt in water by gavage daily for 4 days, parasitemia on 5th day

Compound	IC50 [1, 6] [nM]	IC50 [2, 7] [nM]	IC50 [3, 8] [nM]	IC50 [4, 9] [nM]	other results
Cc1cnc2cc(Cl)ccc2c1NCCCNC(C)(C)C [Pharmachin 128, 7-Chloro-3-Methyl-4-(3-t-butylaminopropylamino)-quinoline]	6.2	11.6	12	11.3	ED50 (50% reduction in parasitemia) (Plasmodium yoelii): 2.5 mg/kg/day; Animals recrudesced 2 weeks after the last dose (P. berghei (ANKA/GFP); 16 mg/kg/day group, gavage, 4 days, citrate salt): 2 of the 5; Bloodstream parasites on 5th day (P. berghei (ANKA/GFP); 16 mg/kg/day, gavage, 4 days, citrate salt): completely cleared; Bloodstream parasites on 5th day (P. berghei (ANKA/GFP); [10]): completely cleared; Parasitemia over full 30-day examination period (scored as cures) (P. berghei (ANKA/GFP); [10]): remained aparasitemic; ED50 (P. berghei (ANKA/GFP); [11]): 2.7 mg/kg/day; ED90 (P. berghei (ANKA/GFP); [11]): 4.7 mg/kg/day; IC50 ([5]; range over D6, Dd2, Tm90.C2B, 7G8, read-out: IC50 values ranging, all 4 P. falciparum strains): 6.2 to 12 nM
CCN(CC)CCNc1c(C)cnc2cc(Cl)ccc12 [Pharmachin 127, 7-Chloro-3-Methyl-4-(3-(diethylamino)-ethylamino)-Quinoline]	14.1	17.8	18.3		
CCN(CC)CCCNc1c(C)cnc2cc(Cl)ccc12 [Pharmachin 112, 7-Chloro-3-Methyl-4-(3-(diethylamino)-propylamino)-Quinoline]	12.8	17.7	16.6		ED50 (50% reduction in parasitemia) (Plasmodium yoelii): 6.5 mg/kg/day
CCN(CC)CCCC(C)Nc1ccnc2cc(Cl)ccc12 (stereo not shown) [Chloroquine, reference compound]					IC50 ([1]; Plasmodium falciparum, D6, 72 h, read-out: Antiplasmodial IC50, D6 strain): 11.2 nM; IC50 ([2]; Plasmodium falciparum, DD2, 72 h): 160 nM; IC50 ([3]; TM90, 72 h): 144 nM; IC50 ([4]; Plasmodium falciparum, 7G8, 72 h): 55 nM
5.7-Difluoro-3-Methyl-4-(3-t-butylaminpropyl-amino)-Quinoline [Pharmachin 130]					IC50 ([1]; chloroquine sensitive D6 strain; 72 hrs; mean of at least two experiments in triplicate; read-out: Antiplasmodial IC50, D6 strain): 15 nM; IC50 ([2]; multidrug-resistant Dd2 strain, 72 hrs, mean of at least two experiments in triplicate): 21.9 nM; IC50 ([4]; multidrug-resistant 7G8 strain, 72 hrs, mean of at least two experiments in triplicate): 25.9 nM
Clc1ccc2c(NCCCNC34CC5CC(CC(C5)C3)C4)ccnc2c1 [AQ-13-AD, 7-Chloro-(3-adamantylamino)-aminopropylquinoline]	3.8	4.2	4.9		
Cc1cnc2cc(Cl)ccc2c1N1CCN(CCCN2CCN(c3c(C)cnc4cc(Cl)ccc34)CC2)CC1 [3-methyl-piperaquine]	4.6	6.5		9.5	
CCN(CC)CCCNC1=CCNc2cc(Cl)ccc21 [AQ-13, reference compound]	7.2	8.1		12	Antiplasmodial activity against all tested drug resistant strains ([5]; in words): high level of antiplasmodial activity
CCN(CC)CCCC(C)Nc1c(C)cnc2cc(Cl)ccc12 (stereo not shown) [Sontochin, 3-methyl-chloroquine, reference compound]	8.6	11.3	13.8		IC50 ([5]; range over strains as worded in text, read-out: IC50 values ranging, drug resistant strains of P. falciparum): 8.6 to 13.8 nM
C=C[C@H]1C[N@@]2CC[C@H]1C[C@H]2[C@H](O)c1ccnc2ccc(OC)cc12 [Quinine, reference compound]	19	87	96	29.5	
Cc1cnc2ccc(Cl)cc2c1NCCCNC(C)(C)C [Pharmachin 129, 6-Chloro-3-Methyl-4-(3-t-butylaminopropylamino)-Quinoline]	94.8	127			
O=C1C(O)=C([C@H]2CC[C@H](c3ccc(Cl)cc3)CC2)C(=O)c2ccccc21 [Atovaquone, reference compound]	0.1	0.1	7700		

Reference: patent US8481543B2, “Compounds for treating parasitic disease” (Oregon Health & Science University, priority 2008, dated 2013)
